Assay results from US20240229066A1 (priority 2020, published 2024).
Peptide text beside a SMILES is read from it. * marks the point of attachment. Cbz = O=C(OCc1ccccc1)*; CHN2 = [N-]=[N+]=C*

Legend:
Type in all cases: cell-based, recombinant vesicular stomatitis virus
[1] = test system: rVSVs carrying SARS-CoV 2 S
[2] = test system: rVSVs bearing SARS-CoV-2 S
rVSVs bearing EBOV GP = test system: rVSVs bearing EBOV GP

| SMILES | S-mediated entry (infection scored by eGFP expression) [1] | sensitivity of S-mediated entry relative to EBOV GP-dependent entry [1] | entry by rVSVs bearing SARS-CoV-2 S (infection scored by eGFP expression) [2] | sensitivity of S-mediated entry compared with entry by EBOV GP [2] | entry by rVSVs bearing EBOV GP (infection scored by eGFP expression) (rVSVs bearing EBOV GP) |
| --- | --- | --- | --- | --- | --- |
| [N-]=[N+]=CC(=O)C(Cc1ccc(O)cc1)NC(=O)C(Cc1ccccc1)NC(=O)OCc1ccccc1 (stereo not drawn) [FYdmk, Z-Phe-tyr-dmk] (Cbz-Phe-Tyr-CHN2; configuration not given here) | inhibited S-mediated entry | reduced sensitivity | – | – | – |
| Cl.N [NH4Cl] | – | – | reduced entry | comparatively less sensitive | reduced entry |
